Experimental data reported in ChEMBL document CHEMBL4020739, “Investigation of the structural requirements of K-Ras(G12D) selective inhibitory peptide KRpep-2d using alanine scans and cysteine bridging” (Bioorg Med Chem Lett, 2017).
Peptide text beside a SMILES is read from it.

Legend:
[1] = biological target: T1, GTPase KRas (Homo sapiens, UniProt P01116, G12D); assay: Inhibition of biotinylated K-Ras G12D mutant (unknown origin) assessed as reduction in SOS1 (564 to 1049 residues)-mediated BODIPY-GDP-GTP exchange after 1 hr in presence of DTT by TR-FRET assay
[2] = biological target: T1, GTPase KRas; assay: Inhibition of biotinylated K-Ras G12D mutant (unknown origin) assessed as reduction in SOS1 (564 to 1049 residues)-mediated BODIPY-GDP-GTP exchange after 1 hr by TR-FRET assay
[3] = biological target: GTPase KRas (Homo sapiens, UniProt P01116, G12C); assay: Inhibition of biotinylated K-Ras G12C mutant (unknown origin) assessed as reduction in SOS1 (564 to 1049 residues)-mediated BODIPY-GDP-GTP exchange after 1 hr by TR-FRET assay
[4] = organism: Homo sapiens; assay: Selectivity ratio of IC50 for inhibition of biotinylated K-Ras G12C mutant (unknown origin) to IC50 for inhibition of biotinylated K-Ras G12D mutant (unknown origin)
[5] = organism: Homo sapiens; assay: Selectivity ratio of IC50 for inhibition of biotinylated wild type K-Ras (unknown origin) to IC50 for inhibition of biotinylated K-Ras G12D mutant (unknown origin)
[6] = biological target: GTPase KRas (Homo sapiens, UniProt P01116); assay: Inhibition of biotinylated wild-type K-Ras (unknown origin) assessed as inhibition of human SOS1 (564 to 1049 residues)-mediated BODIPY-GDP-GTP exchange after 1 hr by TR-FRET assay

SMILES | IC50 [1] | IC50 [2] | IC50 [3] | Ratio IC50 [4] | Ratio IC50 [5] | IC50 [6]
CC[C@H](C)[C@@H]1NC(=O)[C@H](C)NC(=O)[C@H](CC(C)C)NC(=O)[C@@H]2CCCN2C(=O)[C@@H](NC(=O)[C@H](CCCNC(=N)N)NC(=O)[C@H](CCCNC(=N)N)NC(=O)[C@H](CCCNC(=N)N)NC(=O)[C@H](CCCNC(=N)N)NC(C)=O)CSSC[C@@H](C(=O)N[C@@H](CCCNC(=N)N)C(=O)N[C@@H](CCCNC(=N)N)C(=O)N[C@@H](CCCNC(=N)N)C(=O)N[C@@H](CCCNC(=N)N)C(N)=O)NC(=O)[C@H](C(C)C)NC(=O)[C@@H]2CCCN2C(=O)[C@H](CC(=O)O)NC(=O)[C@H](Cc2ccc(O)cc2)NC(=O)[C@H](CO)NC1=O (HELM PEPTIDE1{[ac].R.R.R.R.C.P.L.A.I.S.Y.D.P.V.C.R.R.R.R.[am]}$PEPTIDE1,PEPTIDE1,6:R3-16:R3$$$V2.0) | 0.192 µM | 0.05 µM | 0.053 µM | 1 | 34 | 1.73 µM
CC[C@H](C)[C@@H]1NC(=O)[C@H](Cc2ccc(O)cc2)NC(=O)[C@H](CC(C)C)NC(=O)[C@H](C)NC(=O)[C@@H](NC(=O)[C@H](CCCNC(=N)N)NC(=O)[C@H](CCCNC(=N)N)NC(=O)[C@H](CCCNC(=N)N)NC(=O)[C@H](CCCNC(=N)N)NC(C)=O)CSSC[C@@H](C(=O)N[C@@H](CCCNC(=N)N)C(=O)N[C@@H](CCCNC(=N)N)C(=O)N[C@@H](CCCNC(=N)N)C(=O)N[C@@H](CCCNC(=N)N)C(N)=O)NC(=O)[C@H](C(C)C)NC(=O)[C@@H]2CCCN2C(=O)[C@H](CC(=O)O)NC(=O)[C@H](Cc2ccc(O)cc2)NC(=O)[C@H](CO)NC1=O (HELM PEPTIDE1{[ac].R.R.R.R.C.A.L.Y.I.S.Y.D.P.V.C.R.R.R.R.[am]}$PEPTIDE1,PEPTIDE1,6:R3-16:R3$$$V2.0) | 0.172 µM | 0.019 µM | 0.113 µM | 6 | 41 | 0.763 µM
CC[C@H](C)[C@@H]1NC(=O)[C@H](Cc2ccc(O)cc2)NC(=O)[C@H](CC(C)C)NC(=O)[C@@H]2CCCN2C(=O)[C@@H](NC(C)=O)CSSC[C@@H](C(N)=O)NC(=O)[C@H](C(C)C)NC(=O)[C@@H]2CCCN2C(=O)[C@H](CC(=O)O)NC(=O)[C@H](Cc2ccc(O)cc2)NC(=O)[C@H](CO)NC1=O (HELM PEPTIDE1{[ac].C.P.L.Y.I.S.Y.D.P.V.C.[am]}$PEPTIDE1,PEPTIDE1,2:R3-12:R3$$$V2.0) | 9.77 µM | 0.011 µM | 0.082 µM | 7 | 13 | 0.142 µM
CC[C@H](C)[C@@H]1NC(=O)[C@H](Cc2ccc(O)cc2)NC(=O)[C@H](C)NC(=O)[C@@H]2CCCN2C(=O)[C@@H](NC(=O)[C@H](CCCNC(=N)N)NC(=O)[C@H](CCCNC(=N)N)NC(=O)[C@H](CCCNC(=N)N)NC(=O)[C@H](CCCNC(=N)N)NC(C)=O)CSSC[C@@H](C(=O)N[C@@H](CCCNC(=N)N)C(=O)N[C@@H](CCCNC(=N)N)C(=O)N[C@@H](CCCNC(=N)N)C(=O)N[C@@H](CCCNC(=N)N)C(N)=O)NC(=O)[C@H](C(C)C)NC(=O)[C@@H]2CCCN2C(=O)[C@H](CC(=O)O)NC(=O)[C@H](Cc2ccc(O)cc2)NC(=O)[C@H](CO)NC1=O (HELM PEPTIDE1{[ac].R.R.R.R.C.P.A.Y.I.S.Y.D.P.V.C.R.R.R.R.[am]}$PEPTIDE1,PEPTIDE1,6:R3-16:R3$$$V2.0) | > 100 µM | 1.79 µM | 1.63 µM | 1 | > 56 | > 100 µM

Continued, values first:

IC50 [1] | IC50 [2] | IC50 [3] | Ratio IC50 [4] | Ratio IC50 [5] | IC50 [6] | SMILES
0.0358 µM | 0.0075 µM | 0.044 µM | 6 | 14 | 0.105 µM | CC[C@H](C)[C@@H]1NC(=O)[C@H](Cc2ccc(O)cc2)NC(=O)[C@H](CC(C)C)NC(=O)[C@@H]2CCCN2C(=O)[C@@H](NC(=O)[C@H](CCCNC(=N)N)NC(=O)[C@H](CCCNC(=N)N)NC(=O)[C@H](CCCNC(=N)N)NC(=O)[C@H](CCCNC(=N)N)NC(C)=O)CSSC[C@@H](C(=O)N[C@@H](CCCNC(=N)N)C(=O)N[C@@H](CCCNC(=N)N)C(=O)N[C@@H](CCCNC(=N)N)C(=O)N[C@@H](CCCNC(=N)N)C(N)=O)NC(=O)[C@H](C)NC(=O)[C@@H]2CCCN2C(=O)[C@H](CC(=O)O)NC(=O)[C@H](Cc2ccc(O)cc2)NC(=O)[C@H](CO)NC1=O (HELM PEPTIDE1{[ac].R.R.R.R.C.P.L.Y.I.S.Y.D.P.A.C.R.R.R.R.[am]}$PEPTIDE1,PEPTIDE1,6:R3-16:R3$$$V2.0)
73.5 µM | 20.6 µM | 5.19 µM | 0.3 | 2 | 39.3 µM | CC(=O)N[C@@H](CCCNC(=N)N)C(=O)N[C@@H](CCCNC(=N)N)C(=O)N[C@@H](CCCNC(=N)N)C(=O)N[C@@H](CCCNC(=N)N)C(=O)N[C@H]1CSSC[C@@H](C(=O)N[C@@H](CCCNC(=N)N)C(=O)N[C@@H](CCCNC(=N)N)C(=O)N[C@@H](CCCNC(=N)N)C(=O)N[C@@H](CCCNC(=N)N)C(N)=O)NC(=O)[C@H](C(C)C)NC(=O)[C@@H]2CCCN2C(=O)[C@H](CC(=O)O)NC(=O)[C@H](Cc2ccc(O)cc2)NC(=O)[C@H](CO)NC(=O)[C@H](C)NC(=O)[C@H](Cc2ccc(O)cc2)NC(=O)[C@H](CC(C)C)NC(=O)[C@@H]2CCCN2C1=O (HELM PEPTIDE1{[ac].R.R.R.R.C.P.L.Y.A.S.Y.D.P.V.C.R.R.R.R.[am]}$PEPTIDE1,PEPTIDE1,6:R3-16:R3$$$V2.0)
0.022 µM | 0.0063 µM | 0.036 µM | 6 | 121 | 0.764 µM | CC[C@H](C)[C@@H]1NC(=O)[C@H](Cc2ccc(O)cc2)NC(=O)[C@H](CC(C)C)NC(=O)[C@@H]2CCCN2C(=O)[C@@H](NC(=O)[C@H](CCCNC(=N)N)NC(=O)[C@H](CCCNC(=N)N)NC(=O)[C@H](CCCNC(=N)N)NC(=O)[C@H](CCCNC(=N)N)NC(C)=O)CSSC[C@@H](C(=O)N[C@@H](CCCNC(=N)N)C(=O)N[C@@H](CCCNC(=N)N)C(=O)N[C@@H](CCCNC(=N)N)C(=O)N[C@@H](CCCNC(=N)N)C(N)=O)NC(=O)[C@H](C(C)C)NC(=O)[C@@H]2CCCN2C(=O)[C@H](CC(=O)O)NC(=O)[C@H](Cc2ccc(O)cc2)NC(=O)[C@H](C)NC1=O (HELM PEPTIDE1{[ac].R.R.R.R.C.P.L.Y.I.A.Y.D.P.V.C.R.R.R.R.[am]}$PEPTIDE1,PEPTIDE1,6:R3-16:R3$$$V2.0)
> 100 µM | 15.4 µM | 0.975 µM | 0.06 | 4 | 65 µM | CC[C@H](C)[C@@H]1NC(=O)[C@H](Cc2ccc(O)cc2)NC(=O)[C@H](CC(C)C)NC(=O)[C@@H]2CCCN2C(=O)[C@@H](NC(=O)[C@H](CCCNC(=N)N)NC(=O)[C@H](CCCNC(=N)N)NC(=O)[C@H](CCCNC(=N)N)NC(=O)[C@H](CCCNC(=N)N)NC(C)=O)CSSC[C@@H](C(=O)N[C@@H](CCCNC(=N)N)C(=O)N[C@@H](CCCNC(=N)N)C(=O)N[C@@H](CCCNC(=N)N)C(=O)N[C@@H](CCCNC(=N)N)C(N)=O)NC(=O)[C@H](C(C)C)NC(=O)[C@@H]2CCCN2C(=O)[C@H](C)NC(=O)[C@H](Cc2ccc(O)cc2)NC(=O)[C@H](CO)NC1=O (HELM PEPTIDE1{[ac].R.R.R.R.C.P.L.Y.I.S.Y.A.P.V.C.R.R.R.R.[am]}$PEPTIDE1,PEPTIDE1,6:R3-16:R3$$$V2.0)
